# Reference: patent US20090274626A1, “TARGETING TNF-alpha CONVERTING ENZYME(TACE)- DEPENDENT GROWTH FACTOR SHEDDING IN CANCER THERAPY” (The Regents of the University of California, priority 2005, published 2009)
# Entries after “also recorded” stand apart in the source; their conditions may differ.
# B1: AREG: recombinant EGFR ligand Amphiregulin (protein, UniProt P15514 101-187, looked up)
# Amphiregulin: SVRVEQVVKPPQNKTESENTSDKPKRKKKGGKNGKNRRNRKKKNPCNAEFQNFCIHGECKYIEHLEAVTCKCQQEYFGERCGEKSMK
# Key:
# [1] = system: T4-2 cells expressing TGFαΔTM; experiment: 3D culture of T4-2 cells expressing soluble TGFα (TGFαΔTM): colony size and morphology; type: cell-based, human; settings: AG1478-treated TGFαΔTM vs proTGFα colonies, P<0.05
# Procedure: (§1) For 3D lrECM culture, T4-2 cells were seeded at 21000 cells per cm^2 on top of Matrigel, overlaid with H14 medium containing 5% Matrigel (BD Biosciences, San Jose, Calif.), and treated with 80 nM AG1478, 20 μM TAPI-2 or the relevant vehicle controls.
# (§2) Amphotropic retroviruses were generated by transfection (Lipofectamine; Invitrogen, Carlsbad, Calif.) of the Phoenix packaging cell line (a gift of Dr. Gary Nolan, Stanford) with pBM-IRES-Puro or derivatives containing the AREG or TGFα open reading frames. Two million phoenix cells per 6 cm dish were plated the day prior to transfection and transfected with 2 μg of the appropriate retroviral construct. Retrovirus-containing culture medium was harvested after 48 hrs, supplemented with polybrene to 5 μg/ml and added to HMT3522 cells at 30-50% confluence. Pools of stable infectants were selected in 1 μg/ml puromycin.
# (§3) Cloning of pro-AREG and pro-TGFα. The open reading frames of these genes were amplified by PCR from T4-2 cDNA. […]
# (§4) Quantitation of colony size in the 3D lrECM culture was performed by image analysis. […] The high resolution digital images were then analyzed using NIH Image analysis software and the cross-sectional area of each colony was determined for many colonies. This process was hand-curated to ensure that aggregates of colonies were not measured as a single colony.
# [2] = system: T4-2 cells; experiment: Relative proliferation of T4-2 cells with AG 1478 with or without TAPI-2 (sensitization, FIG. 5); type: cell-based, human; settings: 0.01 μM AG 1478 alone
# Procedure: FIG. 5. […] T4-2 cells were allowed to adhere to 48 well plates. Drugs were added at the indicated concentrations. Conditions were analyzed in triplicate. For comparison, all data were normalized to the 100%.
# (FIG. 5) In this experiment, T4-2 cells were allowed to adhere to 48 well plates. Drugs, AG 1478 and TAPI-2, were added at various concentrations of 0.001 μM, 0.01 μM, 0.1 μM, 1 μM, 10 μM and 100 μM. Conditions were analyzed in triplicate. For comparison, all data were normalized to the 100%.
# [3] = system: T4-2 cells expressing AREGΔTM; experiment: 3D culture of T4-2 cells expressing soluble AREG (AREGΔTM): colony size and morphology; type: cell-based, human; settings: AG1478-treated AREGΔTM vs proAREG colonies, P<0.0001
# Procedure: as §1, §2, §3, §4
# [4] = system: T4-2 cells; experiment: 3D culture of T4-2 cells in 80 nM AG1478 with various amounts of EGF; type: cell-based, human; settings: 80 nM AG1478, four days
# Procedure: It was shown that increasing amounts of the EGFR ligand, EGF, attenuates T4-2 cells response to 80 nM of AG 1478. Cells were cultured for four days in 80 nM AG1478 and various amounts of EGF. Above a threshold EGF concentration between 0.1-1 ng/ml ([…]), the EGFR inhibitor can no longer revert the malignant phenotype. Thus, reversion of T4-2 cells by EGFR inhibition is overcome by the presence of picomolar amounts of EGFR ligand.
# [5] = system: T4-2 cells; experiment: 3D lrECM (Matrigel) culture of T4-2 cells: reversion of malignant phenotype, polarity, colony size; type: cell-based, human
# Procedure: as §1
# Silencer™ siRNAs against TACE (Ambion, Austin, Tex.) were also transfected in according to the Reverse Transfection protocol of Invitrogen. siRNAs against the following TACE sense strand sequences were transfected either individually (100 nM) or as a pool (33.3 nM each): […]tt (SEQ ID NO: 2), GCAGCAt[…]tt (SEQ ID NO:3) and […]tt (SEQ ID NO: 4). For 3D culture assays, T4-2 cells were trypsinized post-transfection and plated as single cells in Matrigel. Knockdown was assessed by western blot from a parallel transfection 48 hrs post-transfection. Random siRNA sequence was used as a negative control.
# Indirect immunofluorescence. Colonies were solubilized from […] culture by shaking in PBS/0.05M EDTA on ice for 30 mins, fixed in 4% paraformaldehyde, permeabilized, stained with anti-α6-integrin (Chemicon, Temecula, Calif.) and counterstained with DAPI.
# Quantitation of colony size in the 3D lrECM culture was performed by image analysis. Representative images were captured using a digital camera attached to a phase contrast microscope. The high resolution digital images were then analyzed using NIH Image analysis software and the cross-sectional area of each colony was determined for many colonies. This process was hand-curated to ensure that aggregates of colonies were not measured as a single colony.
# [6] = system: patients with advanced pancreatic adenocarcinoma; settings: cited from earlier work
# [7] = system: NSCLC; settings: single agent in NSCLC; cited from earlier work
# [8] = system: T4-2 cells; experiment: T4-2 cell proliferation with Gefitinib in absence or presence of TGFα; type: cell-based, human; settings: Gefitinib 0 nM, 0.3 nM and 3 nM
# Procedure: Control cells were cultured in the absence of TGFα and cells were cultured in the presence of TGFα. Both the control cells and cells grown with TGFα were also cultured with various amounts of Gefitinib at 0 nM, 0.3 nM and 3 nM.
# [9] = system: MAPK; experiment: MAPK activation in S1 cells by conditioned medium from T4-2 cells; type: cell-based, human; settings: pre-incubation of S1 cells with inhibitor
# Procedure: Western blotting. Cells were lysed in 50 mM Tris.HCl pH 7.5, 150 mM NaCl, 0.5% NP40 supplemented with protease and phosphatase inhibitors (Calbiochem, San Diego, Calif.) and clarified by centrifugation. 50 μg of each sample was fractionated by SDS-PAGE, transferred to nitrocellulose membranes and probed with antibodies against the following proteins: phospho-MAPK, Total MAPK, phospho-p70S6-Kinase, (Cell Signaling Technology, MA). E-cadherin (BD Biosciences, CA) was used as a loading control. Blots were developed using Supersignal West Femto (Pierce, Rockland, Ill.). Images were captured using a Fluor Chem 8900 imager (Alpha Innotech, San Leandro, Calif.).
# [10] = system: non-small cell lung cancer (NSCLC) patients; settings: two large trials, chemotherapy with Gefitinib; cited from earlier work
# [11] = biological target: transmembrane precursor of Amphiregulin (pro-AREG) (human (cloned from T4-2 human breast cell cDNA)) (UniProt P15514); experiment: cell-based or functional assay
# [12] = system: S1 cells; experiment: S1 cell proliferation with recombinant EGFR ligands; type: cell-based, human; settings: recombinant ligand equimolar to EGF (860 μM)
# Procedure: Cell culture All reagents were purchased from SIGMA (St. Louis, Mo.) except where otherwise noted. HMT3522 cells were cultivated on 2D and 3D substrata in H14 medium, a 50:50 mix of DMEM/F12 (UCSF Cell culture Facility, San Francisco, Calif.) supplemented with 5 μg/ml prolactin, 250 ng/ml insulin, 1.4×10^−6 M hydrocortisone, 10^−10 M β-estradiol, 2.6 ng/ml sodium selenite and 10 μg/ml transferrin. S1 cells were additionally supplemented with 10 ng/ml EGF. In various experiments, cells were supplemented with AREG, TACE, TGFα. In all cases, AREG and TGFα were used at the same molar concentration as EGF ([…]).
# Proliferation assays. HMT3522 cells were seeded in 96 well plates and treated (in triplicate) as described in the figure legends. To determine relative growth, 0.1 volumes of WST cell proliferation analysis reagent (Roche, Indianapolis, Ind.) was added to the medium and its formazan metabolite was measured by absorbance at 460 nm.
molecule,measurement,setting,value
COc1cc2ncnc(Nc3cccc(Cl)c3)c2cc1OC [AG1478],colony size in presence of the EGFR inhibitor,[1],consistently larger than those formed by cells infected with either empty vector or with the membrane-tethered pro-forms
same,"reduction in proliferation, EGFR inhibitor alone",[2],no reduction in proliferation
same,colony size in presence of the EGFR inhibitor,[3],consistently larger than those formed by cells infected with either empty vector or with the membrane-tethered pro-forms
same,threshold EGF concentration above which the EGFR inhibitor can no longer revert the malignant phenotype,[4]; 3D culture,0.1 to 1 ng/mL
same,threshold EGF concentration above which the EGFR inhibitor can no longer revert the malignant phenotype,[4]; molar equivalent,8.6 to 86 pM
same,colony size (cross-sectional area) vs vehicle,"[5]; 3D culture, four days, p<0.001",significantly smaller than those formed by cells treated with vehicle alone; also recorded: significantly different from controls
same,reversion of the malignant phenotype of T4-2 cells,"[5]; 3D lrECM culture, 80 nM AG1478 or 20 μM TAPI-2 vs vehicle",reversion of the malignant phenotype; also recorded: may be reverted
C#Cc1cccc(Nc2ncnc3cc(OCCOC)c(OCCOC)cc23)c1 [Erlotinib],median extension in progression-free survival,[6]; added to gemcitabine,six
same,median increase in overall survival,[6]; added to gemcitabine,14 days
same,survival benefit,[6],statistically significant survival benefit
same,increase in median progression-free survival time,[7],two
COc1cc2ncnc(Nc3ccc(F)c(Cl)c3)c2cc1OCCCN1CCOCC1 [Gefitinib],effect of added TGFα on sensitivity of T4-2 cells to Gefitinib (cell proliferation),[8],reduced the effectiveness
same,activation of MAPK in S1 cells by T4-2 conditioned medium,[9],suppressed
same,survival vs chemotherapy alone,[10],no better than chemotherapy alone
"TACE/ADAM17 expressed endogenously in human breast cancer cells (T4-2, MCF-7) (from UniProt P78536 215-824) (enzyme)",reduction in AREG shedding from MCF-7 cells after siRNA knockdown of TACE,[11],90%
TGFα: recombinant EGFR ligand TGFα,proliferation of non-malignant S1 cells in place of EGF,[12],can substitute for EGF to promote proliferation
B1,proliferation of non-malignant S1 cells in place of EGF,[12],can substitute for EGF to promote proliferation
